Results published in US20260083751A1, “ALLOSTERIC MODULATORS OF ANDROGEN RECEPTOR COACTIVATOR RECRUITMENT FOR CRPC THERAPY” (University of Pittsburgh – Of the Commonwealth System of …, priority 2022, published 2026).
Read-outs that look alike come from different tables or passages of the source.

Key:
Format in all cases: cell-based
DU-145 cells = test: Prostate cancer cell line growth inhibition assay, DU-145; conditions: read-out: AR negative DU-145 GI50
Description: (§1) Prostate Cancer Cell Line Growth Inhibition Assays: The PC-3, DU-145, LNCaP, C4-2, and 22Rv1 PC cell line growth inhibition assays have been described previously (Fancher et al., Assay Drug Dev Technol. 2016, 14:453-477; Fancher et al., Assay Drug Dev Technol. 2019, 17:364-386). On day 1, each PC cell line was harvested, counted, and seeded into two 384-well assay plates, a time zero (T0) and a time 72 h (T72) plate. […] On day 2, 25 μL of the CellTiter-Glo® (CTG) (Promega Corporation, Madison, WI) detection reagent was dispensed into the wells of the TO assay plate using a Matrix electronic multichannel pipette, and the RLUs were captured on the SpectraMax® M5e (Molecular Devices LLC, Sunnyvale, CA) microtiter plate reader. […] On day 5, 25 μL of the CTG detection reagent was dispensed into the wells of the T72 assay plate using a Matrix electronic multichannel pipette, and the RLU's were captured on the SpectraMax® M5e microtiter plate reader platform.
(§2) For the 96-well AR-LBD H^3-DHT radioligand binding assay, eight minimum and maximum plate control wells were utilized to normalize the data. […] To normalize the 72 h compound exposure PC growth inhibition data, the signals from the compound treated wells were processed and expressed as % of the T72 DMSO plate controls. […]

PC-3 cells = test: Prostate cancer cell line growth inhibition assay, PC-3; conditions: read-out: AR negative PC-3 GI50
Description: as §1, §2

[1] = Cytotoxicity counter screens to the reporter assays; conditions: counter screens to M2H, PSA-Luc, AR-V7 reporters, read-out: IC50 in cytotoxicity counter screen

Cc1ccccc1-c1cc(O)c2c(c1)CN(c1nc(C(N)=O)cs1)CCO2 [Compound S1-1]
GI50 (DU-145 cells; 72 h, listed as 1): 60.5 µM
GI50 (PC-3 cells; 72 h, listed as 1): 61.1 µM

Cc1nc(N)cc(N2CCOc3c(O)cc(-c4ccccc4C)cc3C2)n1 [Compound S1-2]
IC50 [1]: 45.6 µM
IC50 at 24 h ([1]; human, PC3-AR-V7-EGFP cells): 45.9 µM

Cc1c(-c2ccccc2F)[nH]c2ccc(CNC(=O)CCc3cn[nH]c3)cc12 [Compound S3-11]
GI50 (DU-145 cells; Homo sapiens, DU-145, 72 h): 15.9 µM
GI50 (PC-3 cells; Homo sapiens, PC-3, 72 h): 28.4 µM
